Test results reported in PubChem BioAssay (NCI).
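GI50 = concentration required for 50% inhibition of growth. TGI is the concentration that stops growth completely.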

How the values were obtained:
Experiment in all cases: growth of human tumour cells (NCI), 384-well format
786-0 renal = tested on: 786-0 renal
A498 renal = tested on: A498 renal
A549 NSCLC = tested on: A549 NSCLC
ACHN renal = tested on: ACHN renal
BT-549 breast = tested on: BT-549 breast
CAKI-1 renal = tested on: CAKI-1 renal
COLO 205 colon = tested on: COLO 205 colon
DU-145 prostate = tested on: DU-145 prostate
EKVX NSCLC = tested on: EKVX NSCLC
HCC-2998 colon = tested on: HCC-2998 colon
HCT-116 colon = tested on: HCT-116 colon
HCT-15 colon = tested on: HCT-15 colon
HL-60(TB) leukemia = tested on: HL-60(TB) leukemia
HOP-62 NSCLC = tested on: HOP-62 NSCLC
HOP-92 NSCLC = tested on: HOP-92 NSCLC
HS 578T breast = tested on: HS 578T breast
HT29 colon = tested on: HT29 colon
IGROV1 ovarian = tested on: IGROV1 ovarian
KM12 colon = tested on: KM12 colon
LOX IMVI melanoma = tested on: LOX IMVI melanoma
M14 melanoma = tested on: M14 melanoma
MALME-3M melanoma = tested on: MALME-3M melanoma
MCF7 breast = tested on: MCF7 breast
MDA-MB-231 breast = tested on: MDA-MB-231 breast
MDA-MB-435 melanoma = tested on: MDA-MB-435 melanoma
MDA-MB-468 breast = tested on: MDA-MB-468 breast
MOLT-4 leukemia = tested on: MOLT-4 leukemia
NCI-H226 lung = tested on: NCI-H226 lung
NCI-H23 lung = tested on: NCI-H23 lung
NCI-H322M lung = tested on: NCI-H322M lung
NCI-H460 NSCLC = tested on: NCI-H460 NSCLC
NCI-H522 lung = tested on: NCI-H522 lung
NCI/ADR-RES ovarian = tested on: NCI/ADR-RES ovarian
OVCAR-3 ovarian = tested on: OVCAR-3 ovarian
OVCAR-4 ovarian = tested on: OVCAR-4 ovarian
OVCAR-5 ovarian = tested on: OVCAR-5 ovarian
OVCAR-8 ovarian = tested on: OVCAR-8 ovarian
PC-3 prostate = tested on: PC-3 prostate
RPMI-8226 leukemia = tested on: RPMI-8226 leukemia
RXF 393 renal = tested on: RXF 393 renal
SF-268 CNS = tested on: SF-268 CNS
SF-295 CNS = tested on: SF-295 CNS
SF-539 CNS = tested on: SF-539 CNS
SK-MEL-28 melanoma = tested on: SK-MEL-28 melanoma
SK-MEL-5 melanoma = tested on: SK-MEL-5 melanoma
SK-OV-3 ovarian = tested on: SK-OV-3 ovarian
SN12C renal = tested on: SN12C renal
SNB-19 CNS = tested on: SNB-19 CNS
SNB-75 CNS = tested on: SNB-75 CNS
SR leukemia = tested on: SR leukemia
SW-620 colon = tested on: SW-620 colon
T-47D breast = tested on: T-47D breast
TK-10 renal = tested on: TK-10 renal
U251 glioblastoma = tested on: U251 glioblastoma
UACC-257 melanoma = tested on: UACC-257 melanoma
UACC-62 melanoma = tested on: UACC-62 melanoma
UO-31 renal = tested on: UO-31 renal

Cc1ccc(NC(=O)c2ccc(CN3CCN(C)CC3)cc2)cc1Nc1nccc(-c2cccnc2)n1
GI50 (786-0 renal): 2.87 µM
TGI (786-0 renal): 7.97 µM
GI50 (A498 renal): 6.8 µM
TGI (A498 renal): 19 µM
GI50 (A549 NSCLC): 16.5 µM
TGI (A549 NSCLC): 35.1 µM
GI50 (ACHN renal): 15.4 µM
TGI (ACHN renal): 29 µM
GI50 (BT-549 breast): 12.1 µM
TGI (BT-549 breast): 24.6 µM
GI50 (CAKI-1 renal): 16.7 µM
TGI (CAKI-1 renal): 30.5 µM
GI50 (COLO 205 colon): 16.3 µM
TGI (COLO 205 colon): 29.9 µM
GI50 (DU-145 prostate): 17.1 µM
TGI (DU-145 prostate): 31.1 µM
GI50 (EKVX NSCLC): 15.5 µM
TGI (EKVX NSCLC): 29.8 µM
GI50 (HCC-2998 colon): 5.93 µM
TGI (HCC-2998 colon): 17.5 µM
GI50 (HCT-116 colon): 6.25 µM
TGI (HCT-116 colon): 18.8 µM
GI50 (HCT-15 colon): 2.48 µM
TGI (HCT-15 colon): 5.73 µM
GI50 (HL-60(TB) leukemia): 5.97 µM
TGI (HL-60(TB) leukemia): 16 µM
GI50 (HOP-62 NSCLC): 14.2 µM
TGI (HOP-62 NSCLC): 27.4 µM
GI50 (HOP-92 NSCLC): 13.7 µM
TGI (HOP-92 NSCLC): 28.1 µM
GI50 (HS 578T breast): 12.9 µM
TGI (HS 578T breast): 25.6 µM
GI50 (HT29 colon): 2.66 µM
TGI (HT29 colon): 6.67 µM
GI50 (IGROV1 ovarian): 12.5 µM
TGI (IGROV1 ovarian): 25.2 µM
GI50 (KM12 colon): 14.3 µM
TGI (KM12 colon): 27.6 µM
GI50 (LOX IMVI melanoma): 4.25 µM
TGI (LOX IMVI melanoma): 14.9 µM
GI50 (M14 melanoma): 5.66 µM
TGI (M14 melanoma): 16.7 µM
GI50 (MALME-3M melanoma): 2.58 µM
TGI (MALME-3M melanoma): 5.42 µM
GI50 (MCF7 breast): 10.6 µM
TGI (MCF7 breast): 22.7 µM
GI50 (MDA-MB-231 breast): 12.6 µM
TGI (MDA-MB-231 breast): 26.7 µM
GI50 (MDA-MB-435 melanoma): 16.7 µM
TGI (MDA-MB-435 melanoma): 31.4 µM
GI50 (MDA-MB-468 breast): 5.1 µM
TGI (MDA-MB-468 breast): 17.9 µM
GI50 (MOLT-4 leukemia): 4.23 µM
TGI (MOLT-4 leukemia): 15.4 µM
GI50 (NCI-H226 lung): 6.87 µM
TGI (NCI-H226 lung): 19.1 µM
GI50 (NCI-H23 lung): 11.5 µM
TGI (NCI-H23 lung): 24.3 µM
GI50 (NCI-H322M lung): 8.53 µM
TGI (NCI-H322M lung): 21.2 µM
GI50 (NCI-H460 NSCLC): 16.6 µM
TGI (NCI-H460 NSCLC): 30.9 µM
GI50 (NCI-H522 lung): 12 µM
TGI (NCI-H522 lung): 24.7 µM
GI50 (NCI/ADR-RES ovarian): 17.2 µM
TGI (NCI/ADR-RES ovarian): 32.1 µM
GI50 (OVCAR-3 ovarian): 17.1 µM
TGI (OVCAR-3 ovarian): 31.8 µM
GI50 (OVCAR-4 ovarian): 16.2 µM
TGI (OVCAR-4 ovarian): 30.7 µM
GI50 (OVCAR-5 ovarian): 13.4 µM
TGI (OVCAR-5 ovarian): 36.8 µM
GI50 (OVCAR-8 ovarian): 14.8 µM
TGI (OVCAR-8 ovarian): 28.4 µM
GI50 (PC-3 prostate): 16 µM
TGI (PC-3 prostate): 31.1 µM
GI50 (RPMI-8226 leukemia): 11.2 µM
TGI (RPMI-8226 leukemia): 23.3 µM
GI50 (RXF 393 renal): 3.61 µM
TGI (RXF 393 renal): 16.2 µM
GI50 (SF-268 CNS): 18.7 µM
TGI (SF-268 CNS): 36.2 µM
GI50 (SF-295 CNS): 14.2 µM
TGI (SF-295 CNS): 27.8 µM
GI50 (SF-539 CNS): 9.13 µM
TGI (SF-539 CNS): 21.4 µM
GI50 (SK-MEL-28 melanoma): 14.4 µM
TGI (SK-MEL-28 melanoma): 27.7 µM
GI50 (SK-MEL-5 melanoma): 10.4 µM
TGI (SK-MEL-5 melanoma): 22.2 µM
GI50 (SK-OV-3 ovarian): 19.7 µM
TGI (SK-OV-3 ovarian): 37.1 µM
GI50 (SN12C renal): 24.7 µM
TGI (SN12C renal): 64.4 µM
GI50 (SNB-19 CNS): 22.1 µM
TGI (SNB-19 CNS): 49.3 µM
GI50 (SNB-75 CNS): 21.7 µM
TGI (SNB-75 CNS): 36.2 µM
GI50 (SR leukemia): 8.83 µM
TGI (SR leukemia): 19.6 µM
GI50 (SW-620 colon): 20.6 µM
TGI (SW-620 colon): 41.2 µM
GI50 (T-47D breast): 6.92 µM
TGI (T-47D breast): 20 µM
GI50 (TK-10 renal): 20.3 µM
TGI (TK-10 renal): 43.1 µM
GI50 (U251 glioblastoma): 14.1 µM
TGI (U251 glioblastoma): 28 µM
GI50 (UACC-257 melanoma): 2.49 µM
TGI (UACC-257 melanoma): 6.18 µM
GI50 (UACC-62 melanoma): 13.6 µM
TGI (UACC-62 melanoma): 26.7 µM
GI50 (UO-31 renal): 15.8 µM
TGI (UO-31 renal): 30.6 µM
